The nature of series [1]: Nuclease resistance assay in DMEM with 10% fetal bovine serum. Particulars: 0.1 µg/µl, DMEM with 10% FBS, 37°C; 12% PAAG/8M urea gel, Stains-All. The format is in vitro ADME. The procedure: Oligonucleotides or conjugates (0.1 µg/µl) were incubated at 37°C in Dulbecco’s Modified Eagle Medium (DMEM) (Sigma, USA) with 10% fetal bovine serum (FBS; GE Healthcare, USA). Reactions were quenched in urea (8M) and immediately frozen in liquid nitrogen, prior to analysis of thawed samples in 12% PAAG/8M urea gels, using Tris-Borate-EDTA (TBE) as running buffer, Stains-All (MP Biomedicals, USA) and photographic gel documentation (VilberLourmat, France).

For the next series, the system named is PTEN. Briefly: PTEN protein level in transfected RLS40 cells by Western blot. Particulars: 1 µM, 72 h after transfection, GAPDH internal control. Type of series: cell-based, mouse. The procedure: (§1) RLS40 ascites were taken from CBA mice intraperitoneally injected with tumor cells (2 × 10^6 in 0.2 ml buffered saline) into their abdominal cavities. RLS40 cells, isolated from ascites fluid by filtration through LSM were divided into seven portions: 1) untreated cells; 2) the cells incubated with Lipofectamine; the cells transfected with 1 µM of 3) h-ODN, 4) 2′-OMe, 5) Inh, 6) miR-21-miRNase, or 7) luc-POC each. After 4 h of transfection, cell suspensions (0.1 ml, 2 × 10^6 cells) were intramuscularly inoculated into the right lower limb of CBA mice for solid tumor development. As soon as tumors began to be palpable, the tumor volumes were measured every 2–3 days using calipers. Tumor volumes were calculated as V = (π/6 × length × width × height). Hepatic index was estimated as (liver weight/mouse weight) × 100% and as 5.0% for healthy CBA mice. Tumor doubling time (DT) was estimated as DT = (t − t0) × ln 2/(ln V − ln V0), where (t − t0) indicates the length of time between two measurements of tumor size and V0 and V denote the tumor volume at two points of the measurement ([Ozono et al., 2004]).
(§2) Supplementary Figure 3. Expression level of miR-21 and PTEN and PDCD4 protein level in RLS40 cells after transfection with 1 µM of luc-POC or miR-21-miRNase using LipofectamineTM 2000. (A) Expression level of miR-21 24 h after transfection. The expression of miRNAs was normalized to U6. […]

In another series the test system is PDCD4. Briefly: PDCD4 protein level in transfected RLS40 cells by Western blot. Type of series: cell-based, mouse. Particulars: 1 µM, 72 h after transfection, GAPDH internal control. Here is the method: as §1, §2
Background: In western blotting, separated proteins are transferred to a membrane and probed.

The test system of the next series is B16 melanoma cells. Briefly: Annexin V-FITC/PI apoptosis assay. Type of series: cell-based, mouse. Here is the method: B16 cells were pre-seeded (2 × 10^5 per well of 24-well plates) in DMEM/10% FBS a day before transfection. Medium was replaced with serum-free DMEM, prior to incubation for 4 h with h-ODN, 2′-OMe, Inh (hsa-miR-21 5 p inhibitor, Ambion, USA), miR-21-miRNase, or luc-POC, each (0.1 or 1 µM) pre-complexed with Lipofectamine (Thermo Fisher Scientific, USA) in Opti-MEM medium (Thermo Fisher Scientific, USA) according to manufacturer’s instructions, then cells were cultivated in fresh culture standard medium for 24–72 h.
At 24, 48, and 72 h after transfection, cells were harvested, washed twice with PBS, resuspended in Binding Buffer to a density of 2–5 × 10^5/ml, and incubated with annexin V-FITC and propidium iodide (PI) (ab14085, Abcam, UK) in the dark at room temperature for 15 min, prior to flow cytometry analysis (Novocyte CEA Biosciences, USA).
Figure 2 Biological effect of the miR-21-specific miRNase. (A) Apoptotic profile of B16 melanoma cells after transfection with miR-21-miRNase and control luc-POC. Cytofluorimetric analysis of cells after staining with Annexin V-FITC/PI 48 h after transfection with miRNase or luc-POC (1 µM) in complex with Lipofectamine2000. Q1—population of living cells; Q2—Annexin V-FITC+/PI-, early apoptosis; Q3—Annexin V-FITC+/PI+, late apoptosis; Q4—Annexin V-FITC-/PI+, necrosis. (B) Average percentage of apoptotic (early and late apoptosis) and necrotic B16 cell population. Data represent mean ± s.e. of four independent experiments.(C, D) Invasion activity of B16 cells after incubation with Lipofectamine (LF) alone or treated with either hairpin antisense oligonucleotide (h-ODN), hairpin 2′-OMe oligonucleotide (2′-OMe), commercial miR-21 inhibitor (Inh), miR-21-miRNase, and control conjugate (luc-POC) in the concentration of 1 µM. Migration of cells was recorded in real time using the xCELLigence cell analysis system. Control—B16 cells without treatment. Data represent mean ± s.d. of four independent experiments.

The next series deals with miR-21. Briefly: miR-21 level in transfected RLS40 cells by PCR analysis. Type of series: cell-based, mouse. Here is the method:
as §1, §2

The next series has as its system lymphosarcoma cells. Particulars: ref Patutina et al., 2017a; cited from earlier work. The text has this: Short functional non-coding microRNAs are implicated in many types of cancer ([Frixa et al., 2015]; [O’Bryan et al., 2017]; [Zhou et al., 2017]). Amongst many miRNAs identified as important inducers of oncogenesis, miR-21 represents an extreme oncomiR, which is strongly involved in tumor onset and progression for many types of malignancies ([Huang et al., 2013]; [Lianidou et al., 2016]; [Yu et al., 2018]). Since miR-21 is abnormally overexpressed in major types of tumors, this oncomiR is the most considered target for anti-miRNA inhibitory studies. However, depending on the origin of tissue an ...

As to “h-ODN: miR-21-targeted hairpin deoxyribooligonucleotide AGTCTGATAAGCTACAAGTCAGCGAAAGCTGACTTG, unconjugated with the peptide (DNA, backbone and methylation of C not given here; hairpin at 3' end, unconjugated)”, in series [1], the “Survival (intact) in serum-containing medium” value is “a few hours”.
Regarding “acetyl-[(LeuArg)2Gly]2-aminohexyl-AGTCTGATAAGCTACAAGTCAGCGAAAGCTGACTTG [miR-21-miRNase, peptide acetyl-[(LeuArg)2Gly]2 conjugated through aminohexyl linker to 5′-end of miR-21-targeted hairpin oligodeoxyribonucleotide]”, the “Increase in PTEN protein level” value with PTEN is 1.7 fold. In addition, the “Increase in PDCD4 protein level” value with PDCD4 is given as 2.4 fold. In addition, the “Necrosis of melanoma B16 cells (Annexin V-FITC-/PI+)” value with B16 melanoma cells (1 µM with Lipofectamine, 24, 48, 72 h after transfection, maximum extent, flow cytometry) was “up to 7%”. In addition, the “Cells with signs of apoptosis (early and late)” value in the series with B16 melanoma cells (1 µM with Lipofectamine, 48 h after transfection (maximum), mean of four independent experiments) is 28%. The “Apoptotic cells relative to intact B16 cells” value with B16 melanoma cells (1 µM, 48 h after transfection) is “six”. The “Decrease in miR-21 level” value in the series with miR-21 (RLS40 cells, 1 µM, 24 h after transfection, normalized to U6) amounted to 2 fold. Besides, the “Reduction in miR-21 level” value in the series with miR-21 (single treatment of tumor cells prior to transplantation) is on record as 50%. For the same substance, the “Inhibition of tumor cell proliferation” value with lymphosarcoma cells is recorded as 50%.

The values above are taken from publication PMC6698794, “Catalytic Knockdown of miR-21 by Artificial Ribonuclease: Biological Performance in Tumor Model” (Frontiers in Pharmacology, 2019).
